Test results reported in article PMC8160793, “Potent Antimicrobial and Antibiofilm Activities of Feleucin-K3 Analogs Modified by α-(4-Pentenyl)-Ala against Multidrug-Resistant Bacteria” (Biomolecules, 2021).
Converted amounts (≈) assume the structure as drawn. Square brackets hold non-standard residues; d marks the D form. Peptide text beside a SMILES is read from it. ξ: configuration not given here. ξαMeGly(pent-4-enyl) = C=CCCCC(C)(N)C(=O)O

How the values were obtained:
[1] = tested on: A. baumannii 822144; format: cell-based, Acinetobacter baumannii; details: 822144, 18 h
Protocol: (§1) The minimum inhibitory concentration (MIC) of the Feleucin-K3 analogs was tested by the broth microdilution method. Sensitive bacteria and drug-resistant bacteria were diluted to 1 × 10^6 CFU/mL, according to the McFarland standards. Bacterial suspension and peptide solutions (8–128 μg/mL) were incubated at 37 °C for 18 h. The minimum concentration without obvious bacterial growth was the MIC of the peptides. The stability of the analogs in a physiological salt environment was also investigated. In brief, salt powder (450-mM NaCl) was dissolved in deionized water, and the following investigational steps were the same as those described before. The above steps were repeated several times, until the same value was obtained three times.

[2] = tested on: A. baumannii 9896; format: cell-based, Acinetobacter baumannii; details: 9896, 18 h
Protocol: as §1

[3] = tested on: A. baumannii 9336; format: cell-based, Acinetobacter baumannii; details: 9336, 18 h
Protocol: as §1

[4] = tested on: A. baumannii 8309; format: cell-based, Acinetobacter baumannii; details: 8309, 18 h
Protocol: as §1

[5] = tested on: A. baumannii 91105; format: cell-based, Acinetobacter baumannii; details: 91105, 18 h
Protocol: as §1

[6] = tested on: A. baumannii 9828; format: cell-based, Acinetobacter baumannii; details: 9828, 18 h
Protocol: as §1

[7] = tested on: A. baumannii 51243; format: cell-based, Acinetobacter baumannii; details: 51243, 18 h
Protocol: as §1

[8] = tested on: A. baumannii 91944; format: cell-based, Acinetobacter baumannii; details: 91944, 18 h
Protocol: as §1

[9] = tested on: A. baumannii 9840; format: cell-based, Acinetobacter baumannii; details: 9840, 18 h
Protocol: as §1

[10] = tested on: A. baumannii 9234; format: cell-based, Acinetobacter baumannii; details: 9234, 18 h
Protocol: as §1

[11] = tested on: A. baumannii 5444; format: cell-based, Acinetobacter baumannii; details: 5444, 18 h
Protocol: as §1

[12] = tested on: A. baumannii 91869; format: cell-based, Acinetobacter baumannii; details: 91869, 18 h
Protocol: as §1

[13] = tested on: A. baumannii 9331; format: cell-based, Acinetobacter baumannii; details: 9331, 18 h
Protocol: as §1

[14] = tested on: A. baumannii ATCC 19606; format: cell-based, Acinetobacter baumannii; details: ATCC 19606, 18 h
Protocol: as §1

[15] = tested on: A. baumannii 92359; format: cell-based, Acinetobacter baumannii; details: 92359, 18 h
Protocol: as §1

[16] = tested on: A. baumannii 97830; format: cell-based, Acinetobacter baumannii; details: 97830, 18 h
Protocol: as §1

[17] = tested on: A. baumannii 91199; format: cell-based, Acinetobacter baumannii; details: 91199, 18 h
Protocol: as §1

[18] = tested on: A. baumannii 98110; format: cell-based, Acinetobacter baumannii; details: 98110, 18 h
Protocol: as §1

[19] = tested on: A. baumannii 91810; format: cell-based, Acinetobacter baumannii; details: 91810, 18 h
Protocol: as §1

[20] = tested on: A. baumannii 91152; format: cell-based, Acinetobacter baumannii; details: 91152, 18 h
Protocol: as §1

[21] = tested on: A. baumannii 9236; format: cell-based, Acinetobacter baumannii; details: 9236, 18 h
Protocol: as §1

[22] = tested on: S. aureus 725; format: cell-based, Staphylococcus aureus; details: 725, 18 h
Protocol: as §1

[23] = tested on: MRSA ATCC 33591; format: cell-based, Staphylococcus aureus; details: ATCC 33591, 18 h
Protocol: as §1

[24] = tested on: MRSA 936; format: cell-based, Staphylococcus aureus; details: 936, 18 h
Protocol: as §1

[25] = tested on: MRSA 51; format: cell-based, Staphylococcus aureus; details: 51, 18 h
Protocol: as §1

[26] = tested on: S. aureus 794; format: cell-based, Staphylococcus aureus; details: 794, 18 h
Protocol: as §1

[27] = tested on: MRSA 52; format: cell-based, Staphylococcus aureus; details: 52, 18 h
Protocol: as §1

[28] = tested on: MRSA 23; format: cell-based, Staphylococcus aureus; details: 23, 18 h
Protocol: as §1

[29] = tested on: MRSA 113; format: cell-based, Staphylococcus aureus; details: 113, 18 h
Protocol: as §1

[30] = tested on: MRSA 71; format: cell-based, Staphylococcus aureus; details: 71, 18 h
Protocol: as §1

[31] = tested on: MRSA 74; format: cell-based, Staphylococcus aureus; details: 74, 18 h
Protocol: as §1

[32] = tested on: MRSA 75; format: cell-based, Staphylococcus aureus; details: 75, 18 h
Protocol: as §1

[33] = tested on: MRSA 48; format: cell-based, Staphylococcus aureus; details: 48, 18 h
Protocol: as §1

[34] = tested on: S. aureus ATCC 25923; format: cell-based, Staphylococcus aureus; details: ATCC 25923, 18 h
Protocol: as §1

[35] = tested on: MRSA 54; format: cell-based, Staphylococcus aureus; details: 54, 18 h
Protocol: as §1

[36] = tested on: P. aeruginosa ATCC 27853; format: cell-based, Pseudomonas aeruginosa; details: ATCC 27853, 18 h
Protocol: as §1

[37] = tested on: E. coli ATCC 25922; format: cell-based; details: ATCC 25922, 18 h
Protocol: as §1

Compound | MIC, A. baumannii 822144 [1] [µg/mL] | MIC, A. baumannii 9896 [2] [µg/mL] | MIC, A. baumannii 9336 [3] [µg/mL] | MIC, A. baumannii 8309 [4] [µg/mL] | MIC, A. baumannii 91105 [5] [µg/mL] | MIC, A. baumannii 9828 [6] [µg/mL] | MIC, A. baumannii 51243 [7] [µg/mL] | MIC, A. baumannii 91944 [8] [µg/mL] | MIC, A. baumannii 9840 [9] [µg/mL] | MIC, A. baumannii 9234 [10] [µg/mL] | MIC, A. baumannii 5444 [11] [µg/mL] | MIC, A. baumannii 91869 [12] [µg/mL] | MIC, A. baumannii 9331 [13] [µg/mL] | MIC, A. baumannii ATCC 19606 [14] [µg/mL] | MIC, A. baumannii 92359 [15] [µg/mL] | MIC, A. baumannii 97830 [16] [µg/mL] | MIC, A. baumannii 91199 [17] [µg/mL] | MIC, S. aureus ATCC 25923 [34] [µg/mL] | MIC, P. aeruginosa ATCC 27853 [36] [µg/mL] | MIC, E. coli ATCC 25922 [37] [µg/mL] | also measured
C=CCCCC(C)(NC(=O)[C@H](CC(C)C)NC(=O)[C@H](CCCCN)NC(=O)[C@H](CC(C)C)NC(=O)[C@@H](N)Cc1ccccc1)C(=O)N[C@@H](CCCCN)C(=O)N[C@@H](CCCCN)C(=O)N[C@@H](CC(C)C)C(=O)N[C@@H](CC(C)C)C(N)=O (stereo partly drawn) [Feleucin-K68] (H-FLKL[ξαMeGly(pent-4-enyl)]KKLL-NH2) | 4 (≈ 3.51 µM) | 4 (≈ 3.51 µM) | 4 (≈ 3.51 µM) | 4 (≈ 3.51 µM) | 4 (≈ 3.51 µM) | 4 (≈ 3.51 µM) | 4 (≈ 3.51 µM) | 4 (≈ 3.51 µM) | 4 (≈ 3.51 µM) | 4 (≈ 3.51 µM) | 4 (≈ 3.51 µM) | 4 (≈ 3.51 µM) | 8 (≈ 7.01 µM) | 4 (≈ 3.51 µM) | 4 (≈ 3.51 µM) | 4 (≈ 3.51 µM) | 4 (≈ 3.51 µM) | 4 (≈ 3.51 µM) | 8 (≈ 7.01 µM) | 8 (≈ 7.01 µM) | MIC, A. baumannii 98110 [18]: 4 µg/mL (≈ 3.51 µM); MIC, A. baumannii 91810 [19]: 4 µg/mL (≈ 3.51 µM); MIC, A. baumannii 91152 [20]: 4 µg/mL (≈ 3.51 µM); MIC, A. baumannii 9236 [21]: 4 µg/mL (≈ 3.51 µM); MIC, S. aureus 725 [22]: 4 µg/mL (≈ 3.51 µM); MIC, MRSA ATCC 33591 [23]: 4 µg/mL (≈ 3.51 µM); MIC, MRSA 936 [24]: 4 µg/mL (≈ 3.51 µM); MIC, MRSA 51 [25]: 4 µg/mL (≈ 3.51 µM); MIC, S. aureus 794 [26]: 8 µg/mL (≈ 7.01 µM); MIC, MRSA 52 [27]: 8 µg/mL (≈ 7.01 µM); MIC, MRSA 23 [28]: 4 µg/mL (≈ 3.51 µM); MIC, MRSA 113 [29]: 4 µg/mL (≈ 3.51 µM); MIC, MRSA 71 [30]: 8 µg/mL (≈ 7.01 µM); MIC, MRSA 74 [31]: 4 µg/mL (≈ 3.51 µM); MIC, MRSA 75 [32]: 4 µg/mL (≈ 3.51 µM); MIC, MRSA 48 [33]: 4 µg/mL (≈ 3.51 µM); MIC, MRSA 54 [35]: 4 µg/mL (≈ 3.51 µM)
C=CCCCC(C)(NC(=O)[C@H](CC(C)C)NC(=O)[C@H](CC(C)C)NC(=O)[C@H](CCCCN)NC(=O)[C@H](CC(C)C)NC(=O)[C@@H](N)Cc1ccccc1)C(=O)N[C@@H](CCCCN)C(=O)N[C@@H](CC(C)C)C(=O)N[C@@H](CC(C)C)C(N)=O (stereo partly drawn) [Feleucin-K71] (H-FLKLL[ξαMeGly(pent-4-enyl)]KLL-NH2) | 16 (≈ 14.2 µM) | 8 (≈ 7.11 µM) | 8 (≈ 7.11 µM) | 8 (≈ 7.11 µM) | 8 (≈ 7.11 µM) | 16 (≈ 14.2 µM) | 32 (≈ 28.4 µM) | 16 (≈ 14.2 µM) | 8 (≈ 7.11 µM) | 8 (≈ 7.11 µM) | 8 (≈ 7.11 µM) | 8 (≈ 7.11 µM) | 64 (≈ 56.9 µM) | 4 (≈ 3.55 µM) | 16 (≈ 14.2 µM) | 32 (≈ 28.4 µM) | 16 (≈ 14.2 µM) | 4 (≈ 3.55 µM) | 8 (≈ 7.11 µM) | 16 (≈ 14.2 µM) | MIC, A. baumannii 98110 [18]: 16 µg/mL (≈ 14.2 µM); MIC, A. baumannii 91810 [19]: 16 µg/mL (≈ 14.2 µM); MIC, A. baumannii 91152 [20]: 16 µg/mL (≈ 14.2 µM); MIC, A. baumannii 9236 [21]: 16 µg/mL (≈ 14.2 µM); MIC, S. aureus 725 [22]: 4 µg/mL (≈ 3.55 µM); MIC, MRSA ATCC 33591 [23]: 4 µg/mL (≈ 3.55 µM); MIC, MRSA 936 [24]: 4 µg/mL (≈ 3.55 µM); MIC, MRSA 51 [25]: 4 µg/mL (≈ 3.55 µM); MIC, S. aureus 794 [26]: 16 µg/mL (≈ 14.2 µM); MIC, MRSA 52 [27]: 4 µg/mL (≈ 3.55 µM); MIC, MRSA 23 [28]: 4 µg/mL (≈ 3.55 µM); MIC, MRSA 113 [29]: 4 µg/mL (≈ 3.55 µM); MIC, MRSA 71 [30]: 4 µg/mL (≈ 3.55 µM); MIC, MRSA 74 [31]: 4 µg/mL (≈ 3.55 µM); MIC, MRSA 75 [32]: 4 µg/mL (≈ 3.55 µM); MIC, MRSA 48 [33]: 4 µg/mL (≈ 3.55 µM); MIC, MRSA 54 [35]: 4 µg/mL (≈ 3.55 µM)
C=CCCCC(C)(N)C(=O)N[C@@H](CC(C)C)C(=O)N[C@@H](CCCCN)C(=O)N[C@@H](C)C(=O)N[C@@H](CCCCN)C(=O)N[C@@H](CCCCN)C(=O)N[C@@H](CC(C)C)C(=O)N[C@@H](CC(C)C)C(N)=O (stereo partly drawn) [Feleucin-K66] (H-[ξαMeGly(pent-4-enyl)]LKAKKLL-NH2) | – | – | – | – | – | – | – | – | – | – | – | – | – | >128 | – | – | – | >128 | >128 | >128 | –
